Results from patent US8642566B2, “Therapeutic approaches for treating neuroinflammatory conditions” (Pharnext, priority 2009, dated 2014).

Legend:
[1] = tested on: MOG-immunized mice developing chronic progressive EAE; assay: Chronic phase EAE study, 70 days post EAE induction (Example 1); format: in vivo, C57BL/6 mice; details: Manova p<0.005; initial mean weights of all groups equal
Method: Prepare the emulsion containing MOG35-55 stock, PBS and CFA. The volume of MOG35-55 stock=[(The volume of the emulsion)×(1.5 g/L)]/[(3×10-3 mol/L)×(2581.6 g/mol)]; the volume of PBS=[(The volume of the emulsion)/2]−(The volume of MOG35-55 stock); The volume of CFA=(The volume of the emulsion)/2. The emulsion is prepared by diluting the MOG35-55 stock with PBS and then mix equal volumes of this diluent and CFA. The final concentration of MOG35-55 is 300 μg per 200 μL emulsion for each mouse. Air bubbles should be avoided and the syringe must be kept at 4° C. until injection. Before use the stability of the emulsion is tested by adding one drop into a beaker of water: if the drop remains as a solid clump and slowly dissipates, then the emulsion is stable and may be injected.
Mice are anesthetized with 2% Pentobarbital sodium (i.p injection, 70˜90 μL/mouse) and kept warm under infrared lamp. Injection of 200 ng Pertussis toxin in 200 μL PBS/mouse is performed (i.v.; tail vein) using a 1-mL syringe with 0.4-mm needle. The previously described emulsion is subcutaneously administered with a 1-mL syringe with 0.4-mm needle.
Mice are kept warm under infrared lamp to perform injection of 200 ng Pertussis toxin in 200 μL PBS via i.v. (tail vein) route, as described for MOG35-55 injection.
A chronic phase study is run for 70 days post EAE induction. […]

[2] = tested on: MOG-immunized mice developing chronic progressive EAE; assay: Acute onset EAE study, 28 days after EAE induction (Example 1); format: in vivo, C57BL/6 mice; details: day 28; treatment from 3 weeks before EAE induction; clopidogrel oral, mecamylamine subcutaneous minipump; combination vs placebo p value less than 0.05
[3] = tested on: mouse EAE model (MOG35-55 immunization); assay: Mouse EAE model, acute oral treatment Day 14 to Day 28, global clinical score (Example 2); format: in vivo, C57L/6J female mice; details: Day 16 to Day 28 after immunization, 1/60 of usual therapeutic doses (clopidogrel hydrogen sulfate 270 μg/kg/day, mecamylamine hydrochloride 9 μg/kg/day), vs EAE mice without treatment
Method: In this experiment, both drugs are equally diluted to ultra-low doses corresponding to 1/60 of their usual therapeutic doses, and importantly, both are administered orally. Protocols for EAE induction and clinical score calculations in this experiment are slightly modified and are described in detail below:
C57L/6J female mice (8 weeks old) are purchased from Janvier (France); after two weeks of habituation, female mice (10 weeks old) develop chronic paralysis after immunization with MOG (Myelin Oligodendrocyte Glycoprotein) peptide. The experimental encephalomyelitis is induced with the Hooke Kit MOG35-55/CFA Emulsion PTX (Pertussis toxin) for EAE Induction (EK-0110, EK-0115; Hooke laboratories). The control kit is CK-0115 (Hooke laboratories).
The day 0, two subcutaneous injections of 0.1 ml each are performed; one on upper back of the mouse and one in lower back. Each injection contains 100 μg of MOG35-55 peptide ([sequence]), 200 μg of inactivated Mycobacterium tuberculosis H37Ra and is emulsified in Complete Freund's adjuvant (CFA) (Hooke laboratories). The emulsion provides antigen needed to expand and differentiate MOG-specific autoimmune T cells. […]
The global score for each animal is determined by the addition of all the above mentioned categories. […]

SMILES	Weight gain, Post Hoc comparison with control group treated with placebo (vehicle) [1]	Histological examination: perivascular lymphocyte infiltrate inflammation (perivascular cuffing) in spinal section [2]	Global clinical score (tail, hind limb, fore limb and bladder scores) [3]
CNC1(C)C2CCC(C2)C1(C)C (stereo not drawn) [mecamylamine]	different from the control group	different degrees of perivascular inflammation	no positive effects
COC(=O)[C@H](c1ccccc1Cl)N1CCc2sccc2C1 [clopidogrel]	different from the control group	different degrees of perivascular inflammation	no positive effects
